The values below come from patent US9409952B2, “Peptide-compound cyclization method” (Chugai Seiyaku Kabushiki Kaisha, priority 2011, dated 2016).

Data set [1] can be described thus: PAMPA (parallel artificial membrane permeability assay). It is filed as in vitro ADME. The note with it: for Papp at 18 hours, 50 µM: PAMPA. The method, boiled down:
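Artificial membrane was 10% (w/v) egg lecithin plus 0.5% (w/v) cholesterol in dodecane on a PVDF filter. A 10 mM DMSO stock was added at 0.5% (v/v) to donor buffer (50 mM MOPSO, pH 6.5, 5.0% glycocholic acid). After 18 h at 37 °C, LC/MS or LC/UV gave donor and acceptor levels for Pe.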
(In general: PAMPA measures passive passage across an artificial lipid membrane.)

Data set [2] in a line: Metabolic stability in human hepatic microsome. It is filed as in vitro ADME. The settings on record: microsomes.
Where [3] appears, read: membrane permeation rate (Pe), 50 mM MOPSO buffer pH 6.5 with 5.0% glycocholic acid, 37° C., 18 hours, read-out: iPAMPA Pe.
Setting [4] is: pH 7.4, human hepatic microsome, NADPH(+), read-out: CL NADPH(+).

Read-outs that look alike come from different tables or passages of the source. Starred links: 1 amine or outer side, 2 acyl side, 3 side chain; linkers in the order of their positions; H or OH if unused. Positions of bridges follow the written chain, without caps; N, C: chain ends. Non-standard residues stand in square brackets, D forms with d. Residues, ends and D or L forms follow the SMILES beside them. *: point of attachment. NMePhe(3-Cl) = CN[C@@H](Cc1cccc(Cl)c1)C(=O)O; Lys(Me2) = CN(C)CCCC[C@H](N)C(=O)O; NMeF = CN[C@@H](Cc1ccccc1)C(=O)O; NMeGABA = CN(CCCC(=O)[*:2])[*:1]; NMeI = CC[C@H](C)[C@H](NC)C(=O)O; NMeβAla = CN(CCC(=O)[*:2])[*:1]; NMeL = CN[C@@H](CC(C)C)C(=O)O; NMeV = CN[C@H](C(=O)O)C(C)C; NMeA = CN[C@@H](C)C(=O)O; Piperidide = C1CCN(*)CC1; dNMeA = CN[C@H](C)C(=O)O; β3hA = C[C@H](N)CC(=O)O; Sar = CNCC(=O)O; tBu = CC(C)(C)*

Take `CC(C)C[C@H]1C(=O)N[C@@H]([C@@H](C)O)C(=O)N(C)[C@@H](C)C(=O)N(C)[C@@H](CC(C)C)C(=O)N(C)[C@@H](Cc2ccccc2)C(=O)N[C@H](C(=O)N2CCCCC2)CC(=O)N(C)CCCC(=O)N(C)[C@@H](C)C(=O)N1C` [DP-524] ([NMeGABA][NMeA][NMeL]T[NMeA][NMeL][NMeF]D-Piperidide; lactam N-8): the Papp at 18 hours, 50 µM in data set [1] (setting [3]) worked out at 16 ×10⁻⁶ cm/s. In data set [2] (setting [4]), the microsomal CLint at 1 uM stood at 162 µL/min/mg.
For the molecule `CC(C)C[C@@H]1NC(=O)[C@H](CC(C)C)N(C)C(=O)CNC(=O)[C@H](Cc2ccccc2)NC(=O)[C@H](C(C)C)N(C)C(=O)[C@H](Cc2ccccc2)NC(=O)[C@H](C)N(C)C(=O)CCN(C)C(=O)C[C@@H](C(=O)N(C)[C@@H](Cc2ccccc2)C(=O)N[C@@H](C)C(=O)N2CCCCC2)NC(=O)[C@H](C)N(C)C(=O)[C@H](CC(C)C)N(C)C1=O` [DP-282] ([NMeβAla][NMeA]F[NMeV]FG[NMeL]L[NMeL][NMeA]D[NMeF]A-Piperidide; lactam N-11), in data set [1] (pH 6.5), the Papp at 18 hours, 50 µM amounted to 28 ×10⁻⁶ cm/s. This molecule also came in with a microsomal CLint at 1 uM in data set [2] (human, pH 7.4, CL NADPH(+)) of 138 µL/min/mg.
`CC[C@H](C)[C@H]1C(=O)N[C@@H](COC(C)(C)C)C(=O)N[C@@H](C)CC(=O)N(C)[C@@H](C)C(=O)N(C)[C@@H](Cc2cccc(Cl)c2)C(=O)N(C)CC(=O)N(C)[C@@H](CC(C)C)C(=O)N[C@@H]([C@@H](C)O)C(=O)N(C)[C@@H](C)C(=O)N(C)[C@@H](CC(C)C)C(=O)N1C` [DP-803] (cyclo([NMeA][NMeL][NMeI]S(tBu)[β3hA][NMeA][NMePhe(3-Cl)][Sar][NMeL]T)): the Papp at 18 hours, 50 µM in data set [1] (setting [3]) came to 28 ×10⁻⁶ cm/s. In addition, in data set [2] (setting [4]), the microsomal CLint at 1 uM came to 85 µL/min/mg.
For `CC[C@H](C)[C@@H](C(=O)N[C@@H](Cc1ccccc1)C(=O)N1CCCCC1)N(C)C(=O)[C@@H]1CC(=O)N(C)[C@H](C)C(=O)N(C)[C@@H](CC(C)C)C(=O)N[C@@H](Cc2ccccc2)C(=O)N[C@@H]([C@@H](C)O)C(=O)N(C)CC(=O)N(C)[C@@H](C)C(=O)N(C)[C@@H](C(C)C)C(=O)N[C@@H](C)C(=O)N(C)[C@@H](CC(C)C)C(=O)N[C@@H](CC(C)C)C(=O)N1` [DP-583] ([dNMeA][NMeL]FT[Sar][NMeA][NMeV]A[NMeL]LD[NMeI]F-Piperidide; lactam N-11), in that order: 25 ×10⁻⁶ cm/s and 27 µL/min/mg.
For `CC(C)C[C@H]1C(=O)N[C@H](C(=O)N(C)[C@@H](Cc2ccccc2)C(=O)N(C)[C@@H](Cc2ccccc2)C(=O)N[C@@H](C)C(=O)N2CCCCC2)CC(=O)N[C@@H](C)C(=O)N(C)[C@@H](Cc2ccccc2)C(=O)N(C)[C@@H](C)C(=O)N(C)[C@@H](CC(C)C)C(=O)N[C@@H]([C@@H](C)O)C(=O)N(C)[C@@H](C)C(=O)N(C)[C@@H](CC(C)C)C(=O)N[C@@H](C(C)C)C(=O)N1C` [DP-203] (A[NMeF][NMeA][NMeL]T[NMeA][NMeL]V[NMeL]D[NMeF][NMeF]A-Piperidide; lactam N-10), in that order: 11 ×10⁻⁶ cm/s and 18 µL/min/mg.
Taken in the same sequence, the figures for `CC(C)C[C@@H]1NC(=O)[C@H](CC(C)C)N(C)C(=O)[C@H]([C@@H](C)O)NC(=O)[C@H](Cc2ccccc2)N(C)C(=O)C[C@@H](C(=O)N2CCCCC2)NC(=O)[C@H](CC(C)C)N(C)C(=O)[C@H](Cc2c[nH]cn2)NC(=O)[C@H](Cc2ccccc2)N(C)C(=O)[C@H](Cc2ccccc2)N(C)C1=O` [DP-905] ([NMeF]T[NMeL]L[NMeF][NMeF]H[NMeL]D-Piperidide; lactam N-9) were 0.6 ×10⁻⁶ cm/s and 73 µL/min/mg.
For `CC(C)C[C@@H]1NC(=O)[C@H](C)N(C)C(=O)[C@H](C(C)C)N(C)C(=O)CN(C)C(=O)[C@H](Cc2ccccc2)NC(=O)[C@H](C(C)C)N(C)C(=O)[C@H](C)N(C)C(=O)[C@H]([C@@H](C)O)NC(=O)[C@H](Cc2ccccc2)N(C)C(=O)[C@H](C)NC(=O)CCN(C)C(=O)C[C@@H](C(=O)N2CCCCC2)NC1=O` [DP-408] ([NMeβAla]A[NMeF]T[NMeA][NMeV]F[Sar][NMeV][NMeA]LD-Piperidide; lactam N-12), the Papp at 18 hours, 50 µM in data set [1] (pH 6.5) was 1.9 ×10⁻⁶ cm/s. This molecule registered a microsomal CLint at 1 uM in data set [2] (human, pH 7.4, CL NADPH(+)) of 14 µL/min/mg.
Turning to `CC[C@H](C)[C@@H]1NC(=O)[C@H](C)N(C)C(=O)[C@H](C)N(C)C(=O)C[C@@H](C(=O)N2CCCCC2)NC(=O)[C@H](CC(C)C)N(C)C(=O)[C@H](Cc2ccccc2)N(C)C(=O)[C@H](C)N(C)C(=O)[C@H]([C@@H](C)O)NC(=O)[C@H](Cc2ccccc2)N(C)C(=O)[C@H](CC(C)C)N(C)C1=O` [DP-258] ([NMeA][NMeA]I[NMeL][NMeF]T[NMeA][NMeF][NMeL]D-Piperidide; lactam N-10), the Papp at 18 hours, 50 µM in data set [1] (setting [3]) came to 52 ×10⁻⁶ cm/s. In addition, the microsomal CLint at 1 uM in data set [2] (setting [4]) came to 188 µL/min/mg.
As to `CC[C@H](C)[C@H](NC(=O)[C@H](Cc1ccccc1)NC(=O)[C@@H](NC(=O)[C@@H]1CC(=O)N[C@H](C)C(=O)N(C)[C@@H](CC(C)C)C(=O)N[C@@H]([C@@H](C)O)C(=O)N(C)[C@@H](CC(C)C)C(=O)N(C)[C@@H](Cc2ccccc2)C(=O)N(C)[C@@H](CC(C)C)C(=O)N1)C(C)C)C(=O)N[C@H](C(=O)N1CCCCC1)[C@@H](C)CC` [DP-917] ([dA][NMeL]T[NMeL][NMeF][NMeL]DVFII-Piperidide; lactam N-7), in data set [1] (membrane permeation rate (Pe), 50 mM MOPSO buffer pH 6.5 with 5.0% glycocholic acid, 37° C., 18 hours), the “iPAMPA Pe” value worked out at 1.0E−07. For the same molecule, the microsomal CLint at 1 uM in data set [2] (setting [4]) was determined as 177 µL/min/mg.
In the case of `CC(C)C[C@H]1C(=O)N[C@H](C(=O)N2CCCCC2)CC(=O)N[C@H](C)C(=O)N(C)[C@@H](C)C(=O)N(C)[C@@H](Cc2ccccc2)C(=O)N(C)[C@@H](CC(C)C)C(=O)N[C@@H]([C@@H](C)O)C(=O)N1C` [DP-739] ([dA][NMeA][NMeF][NMeL]T[NMeL]D-Piperidide; lactam N-7), the Papp at 18 hours, 50 µM in data set [1] (setting [3]) turned out to be 18 ×10⁻⁶ cm/s. Moreover, the microsomal CLint at 1 uM in data set [2] (setting [4]) was 164 µL/min/mg.
For `CC(C)C[C@@H]1NC(=O)[C@H](CC(C)C)N(C)C(=O)C[C@@H](C(=O)N2CCCCC2)NC(=O)[C@H](C)N(C)C(=O)[C@H](CC(C)C)N(C)C(=O)[C@H]([C@@H](C)O)NC(=O)[C@H](Cc2ccccc2)N(C)C1=O` [DP-738] ([NMeL]L[NMeF]T[NMeL][NMeA]D-Piperidide; lactam N-7), in that order: 22 ×10⁻⁶ cm/s and 221 µL/min/mg.
Taken in the same sequence, the figures for `CC(C)C[C@H]1C(=O)N(C)[C@@H](CC(C)C)C(=O)N[C@H](C(=O)N(C)[C@@H](Cc2ccccc2)C(=O)N[C@@H](C)C(=O)N2CCCCC2)CC(=O)N[C@H](C(C)C)C(=O)N(C)[C@@H](C)C(=O)N(C)[C@@H](Cc2ccccc2)C(=O)N(C)[C@@H](C)C(=O)N[C@@H](CCCCN(C)C)C(=O)N(C)CC(=O)N[C@@H](C(C)C)C(=O)N1C` [DP-631] ([dV][NMeA][NMeF][NMeA][Lys(Me2)][Sar]V[NMeL][NMeL]D[NMeF]A-Piperidide; lactam N-10) were 1.6 ×10⁻⁶ cm/s and 5 µL/min/mg.
Take `CC(C)C[C@H]1C(=O)N[C@@H](Cc2ccccc2)C(=O)N[C@@H]([C@@H](C)O)C(=O)N(C)[C@@H](C)C(=O)N(C)[C@@H](Cc2ccccc2)C(=O)N(C)[C@@H](C(C)C)C(=O)NCC(=O)N[C@H](C(=O)N(C)[C@@H](Cc2ccccc2)C(=O)N[C@@H](C)C(=O)N2CCCCC2)CC(=O)N(C)[C@H](C)C(=O)N[C@@H](C)C(=O)N1C` [DP-355] ([dNMeA]A[NMeL]FT[NMeA][NMeF][NMeV]GD[NMeF]A-Piperidide; lactam N-10): in data set [1] (setting [3]), the Papp at 18 hours, 50 µM was found to be 17 ×10⁻⁶ cm/s. Further, in data set [2] (setting [4]), the microsomal CLint at 1 uM worked out at 66 µL/min/mg.
